Reference: patent publication US20100120788A1, “IDENTIFICATION OF POLYNUCLEOTIDES FOR […] OF COMPOUNDS THAT […] WITH AND/OR MODULATE PROTEIN TYROSINE KINASES AND/OR PROTEIN TYROSINE KINASE […] IN PROSTATE CELLS” (Bristol-Myers Squibb Company, priority 2007, published 2010)

Tests used:
[1] = system: imatinib-resistant BCR-ABL mutants; conditions: number of mutants of those tested; cited from earlier work
[2] = system: secreted uPA protein in PC3 cells; test: uPA protein ELISA assay of culture medium; assay type: cell-based, human; conditions: different doses, 24 h, per 50,000 viable cells
Excerpt: FIG. 3. PLAU gene expression and regulation by dasatinib analyzed at mRNA and protein levels. (A) Differential baseline expression of PLAU gene between resistant (R, in black) and sensitive (S, in red) cell lines. The X-values are the expression level in log2-scale. The resistant cell line expressing high level of PLAU was WPMY1 and the sensitive cell line expressing low level of PLAU was LNCaP. (B) Down-regulation of PLAU mRNA level by dasatinib-treatment in 5 sensitive cell lines. The cells were treated with 100 nM dasatinib (+D) or DMSO (Ctrl) for 48 hours. The p value was 0.048 in paired t-test, indicating a significant reduction of PLAU mRNA following dasatinib treatment. (C) Correlation between dasatinib-induced PLAU mRNA down-regulation with the sensitivity of cell lines to dasatinib. […] The amount of uPA protein secreted into the culture medium by 50,000 viable cells was assessed by ELISA assay. […]
Cell were seeded in 24-well plates at density of 25,000 cells/well. […] Total number of cells were also quantitated using a cell counter, and the number of viable cells were assessed with Trypan Blue. The amount of uPA protein in the supernatant was determined using the uPA ELISA kit (America Diagnostica, Stamford, Conn.), and the concentrations of uPA secreted by 50,000 viable cells into the medium were calculated.

SMILES	imatinib-resistant BCR-ABL mutants against which significantly active [1]	amount of uPA protein secreted into the growth medium [2]
Cc1cn(-c2cc(NC(=O)c3ccc(C)c(Nc4nccc(-c5cccnc5)n4)c3)cc(C(F)(F)F)c2)cn1 [AMN107]	32/33	
CC(=O)O[C@H]1C(=O)[C@@]2(C)[C@H]([C@H](OC(=O)c3ccccc3)[C@]3(O)C[C@H](OC(=O)[C@H](O)[C@@H](NC(=O)c4ccccc4)c4ccccc4)C(C)=C1C3(C)C)[C@]1(OC(C)=O)CO[C@@H]1C[C@@H]2O [TAXOL®]		did not see a dose-dependent reduction
